Data taken from patent US10874631B2, “Altertoxin II as a selective inhibitor of Ewing family of tumor cells” (priority 2016, dated 2020).

Tested on: 4 Ewing sarcoma cell lines, including SK-ES-1 cells
Test: Cell cycle distribution by flow cytometry
Format: cell-based
Settings: each of 4 Ewing sarcoma lines
Experimental: FIG. 5A-5B. Altertoxin II causes accumulation of SK-ES-1 Ewing sarcoma cells in the S-phase of the cell cycle. Cell cycle analysis of SK-ES-1 cells by flow cytometry. (A) Histogram of DNA content after treatment with two different concentrations of ATX for 18 hours. (B) quantification of cells in each cell cycle phase.
The effects of altertoxin II on cell cycle distribution were evaluated in 4 Ewing sarcoma cell lines using flow cytometry.

**Q.** For O=C1CC[C@]2(O)c3c(ccc(O)c31)-c1ccc(O)c3c1[C@H]2[C@H]1O[C@H]1C3=O [altertoxin II], which cell cycle distribution is on record?
**A.** Its cell cycle distribution is “Concentration-dependent S-phase arrest”.
